Data on twelve compounds can be found in US5134168A, “Phenoxy and phenylthio, amino substituted benzocycloalkane derivatives in the treatment and prevention of drug-resistant protozoal infections” (Merrell Dow Pharmaceuticals Inc., priority 1991, dated 1992).

In the first experiment the test system is P. falciparum.
Assay: not given
The following applies: recently reported; by interfering with riboflavin metabolism; cited from earlier work.
`CN(C)CCC=C1c2ccccc2CCc2ccccc21` [amitryptyline]: the P. falciparum growth result was “suppress P. falciparum growth”.

`CN(C)CCCN1c2ccccc2CCc2ccccc21` [imipramine]: the P. falciparum growth entry is given as “suppress P. falciparum growth”.

Another experiment relates to chloroquine-resistant P. falciparum (FCR3). The experiment in a line: Isobologram analysis of synergism with chloroquine, hypoxanthine incorporation (FIG. 1). Type of experiment: cell-based, Plasmodium falciparum. The settings on record: IC50 for hypoxanthine incorporation. The method, then:
FIG. 1 illustrates the synergism of 1-(3,4-dichloro-phenoxy)-2,3-dihydro-N,N-dimethyl-1H-Indene-2-methanamine and chloroquine against chloroquine-resistant P. falciparum (FCR3). Isobologram analysis was carried out according to the method of Martin, et al., (1987) Science 235, 899-901 and Berenbaum, (1978) Journal of Infectious Diseases 137, 122-130. […] The X-axis is the IC50 concentration of drug which inhibits hypoxanthine incorporation by 50%) of chloroquine in the absence or presence of 1-(3,4-dichlorophenoxy)-2,3-dihydro-N,N-dimethyl-1H-Indene-2-methanamine while the Y-axis is the IC50 for 1-(3,4-dichlorophenoxy)-2,3-dihydro-N,N-dimethyl-1H-Indene-2-methanamine in the absence or presence of chloroquine.
P. falciparum (clone D6, chloroquine-sensitive; strain FCR3, chloroquine-resistant; and clone W2, multidrug-resistant) was grown in vitro by the method of Trager and Jensen, (1976) Science 193, 673-675.
In the case of `CN(C)CC1Cc2ccccc2C1Oc1ccc(Cl)c(Cl)c1` (stereo not drawn) [1-(3,4-dichlorophenoxy)-2,3-dihydro-N,N-dimethyl-1H-Indene-2-methanamine], the “synergism of the combination with chloroquine” value is on record as “highly synergistic”.

The next experiment deals with P. falciparum (FCR3). Put plainly: Enhancement of chloroquine potency: [3H]-hypoxanthine incorporation into chloroquine-resistant P. falciparum (FCR3) in vitro. Type of experiment: cell-based, Plasmodium falciparum. The settings on record: chloroquine IC50 with compound at 200 ng/ml as percent of chloroquine-alone IC50.
Consider `CN(C)C[C@H]1Cc2ccccc2[C@H]1Sc1ccccc1.O=C(O)C(=O)O` (relative stereo) [1 0 0 -- --CH2 -- CH3 CH3 S cis, cis-2,3-dihydro-N,N-dimethyl-1-(phenylthio)-1H-indene-2-methanamine, ethanedioate], for which the “Percent of IC50 of Chloroquine Alone” value worked out at 14%.

For `CNC[C@@H]1Cc2ccccc2[C@@H]1Oc1ccccc1C(F)(F)F` (relative stereo) [1 0 1 O--CF3 --CH2 -- CH3 H O cis, CIS-2,3-dihydro-N-methyl-1-(2-trifluoromethylphenoxy)-H-indene-2-methanamine ethanedioate (1:1)], the “Percent of IC50 of Chloroquine Alone” value is 22%.

As to `CNC[C@H]1Cc2ccccc2[C@H]1Oc1ccccc1OC` (relative stereo) [1 0 1 O--OCH3 --CH2 -- CH3 H O --, cis-2,3-dihydro-1-(2-methoxyphenoxy)-N-methyl-1H-indene-2-methanamine], the “Percent of IC50 of Chloroquine Alone” value came out at 13%.

As to `CN(C)C[C@@H]1Cc2ccccc2[C@@H]1Oc1ccc(Br)cc1` (relative stereo) [1 0 1 p-Br --CH2 -- CH3 CH3 O cis, CIS-1-(4-romophenoxy)-2,3-dihydro-N,N-dimethyl-1H-indene-2-methanamine ethanedioate], the “Percent of IC50 of Chloroquine Alone” value was found to be 68%.

Consider `CN(C)C[C@H]1Cc2ccccc2[C@H]1Oc1ccc(C(F)(F)F)cc1.Cl` (relative stereo) [1 0 1 p-CF3 --CH2 -- CH3 CH3 O cis, cis-2,3-dihydro-N,N-dimethyl-1-[4-(trifluoromethyl)-phenoxy]-1H-indene-2-methanamine hydrochloride], for which the “Percent of IC50 of Chloroquine Alone” value is recorded as 55%.

For `CN(C)C[C@H]1Cc2ccccc2[C@H]1Oc1ccc2c(c1)OCO2.O=C(O)C(=O)O` (relative stereo) [1 0 2 --OCH2 O-- --CH2 -- CH3 CH3 O cis, CIS 1-(1,3-benzodioxol-5-yloxy)-2,3-dihydro-N,N-dimethyl-1H-indene-2-methanamine ethanedioate (1:1)], the “Percent of IC50 of Chloroquine Alone” value was 25%.

As to `CN(C)C[C@H]1Cc2ccccc2[C@@H]1Oc1ccc(Cl)c(Cl)c1` (relative stereo) [1 0 2 m,p-(Cl)2 --CH2 -- CH3 CH3 O trans], the “Percent of IC50 of Chloroquine Alone” value turned out to be 43%.

With `CN(C)C[C@@H]1Cc2ccccc2[C@H]1Oc1ccc2c(c1)OCO2.O=C(O)C(=O)O` (relative stereo) [TRANS 1-(1,3-benzodioxol-5-yloxy)-2,3-dihydro-N,N-dimethyl-1H-indene-2-methanamine ethanedioate (1:1)], the “Percent of IC50 of Chloroquine Alone” value came to 75%.

In the case of `CN(C)CC1Cc2ccccc2C1Oc1ccccc1` (stereo not drawn) [1 0 0 -- --CH2 -- CH3 CH3 O --, 2,3-dihydro-N,N-dimethyl-1-phenoxy-1H-indene-2-methanamine], the “Percent of IC50 of Chloroquine Alone” value was 10%.
